Data published in patent US20100029646A1, “PRODRUGS OF DIPHENYL OX-INDOL-2-ONE COMPOUNDS” (Topo Target A/S, priority 2006, published 2010).

| Compound | melting point [°C] |
| --- | --- |
| O=C(Nc1ccccc1)Oc1ccc(C2(c3ccc(OC(=O)Nc4ccccc4)cc3)C(=O)Nc3c2ccc(F)c3F)cc1 | 163 to 165 |
| COc1ccc(C2(c3ccc(OCOC(=O)OC(C)C)cc3)C(=O)N(COC(=O)OC(C)C)c3ccccc32)cc1 (stereo not drawn) [Compound 1011, [3-(4-{[(Isopropoxycarbonyl)oxy]methoxy}phenyl)-3-(4-methoxyphenyl)-2-oxo-2,3-dihydro-1H-indol-1-yl]methyl isopropyl carbonate] | 63 to 65 |
| CN1CCN(CCC(=O)Oc2ccc(C3(c4ccc(F)cc4)C(=O)Nc4c3ccc(F)c4F)cc2)CC1 (stereo not drawn) [Compound 1010, 4-[6,7-Difluoro-3-(4-fluorophenyl)-2-oxo-2,3-dihydro-1H-indol-3-yl]phenyl 3-(4-methylpiperazino)propanoate] | 149 to 151 |
| C=CC(=O)Oc1ccc(C2(c3ccc(F)cc3)C(=O)Nc3c2ccc(F)c3C)cc1 (stereo not drawn) [Compound 1016, 4-[6-Fluoro-3-(4-fluorophenyl)-7-methyl-2-oxo-2,3-dihydro-1H-indol-3-yl]phenyl acrylate] | 223 to 225 |
| O=C1N(CCO)c2c(ccc(F)c2F)C1(c1ccc(O)cc1)c1ccc(F)cc1 (stereo not drawn) [Compound 1007, 6,7-Difluoro-3-(4-fluorophenyl)-1-(2-hydroxyethyl)-3-(4-hydroxyphenyl)-1,3-dihydro-2H-indol-2-one] | 80 to 83 |
| O=C(CCN1CCOCC1)Oc1ccc(C2(c3ccc(F)cc3)C(=O)Nc3c2ccc(F)c3F)cc1 (stereo not drawn) [Compound 1009, 4-[6,7-Difluoro-3-(4-fluorophenyl)-2-oxo-2,3-dihydro-1H-indol-3-yl]phenyl 3-morpholinopropanoate] | 174 to 175 |
